Source: PubChem BioAssay AID1259407 (Chemical Carcinogenesis Research Information System (CCRIS), 2018)
Activity calls are given as the source filed them. No rule for the calls is given here.

System: CCRIS mutagenicity, Ames/micronucleus/aberration tests
Experiment: CCRIS mutagenicity studies
Details: Test System: AMES SALMONELLA TYPHIMURIUM
[1] = Strain/Indicator: TA98, Metabolic Activation: NONE, Method: STANDARD PLATE
[2] = Strain/Indicator: TA100, Metabolic Activation: NONE, Method: STANDARD PLATE

Measured: mutagenic call

C=CC(=O)OCCCCCCOC(=O)C=C
inactive: Strain/Indicator: TA97, Metabolic Activation: HAMSTER, LIVER, S-9, AROCLOR 1254 (10%), Method: PREINCUBATION inactive; negative | Strain/Indicator: TA97, Metabolic Activation: HAMSTER, LIVER, S-9, AROCLOR 1254 (30%), Method: PREINCUBATION inactive; negative | Strain/Indicator: TA97, Metabolic Activation: NONE, Method: PREINCUBATION inactive; negative | Strain/Indicator: TA97, Metabolic Activation: RAT, LIVER, S-9, AROCLOR 1254 (10%), Method: PREINCUBATION inactive; negative | Strain/Indicator: TA97, Metabolic Activation: RAT, LIVER, S-9, AROCLOR 1254 (30%), Method: PREINCUBATION inactive; negative | Strain/Indicator: TA98, Metabolic Activation: HAMSTER, LIVER, S-9, AROCLOR 1254 (10%), Method: PREINCUBATION inactive; negative | Strain/Indicator: TA98, Metabolic Activation: HAMSTER, LIVER, S-9, AROCLOR 1254 (30%), Method: PREINCUBATION inactive; negative | Strain/Indicator: TA98, Metabolic Activation: NONE, Method: PREINCUBATION inactive; negative | [1] inactive; negative | Strain/Indicator: TA98, Metabolic Activation: RAT, LIVER, S-9, AROCLOR 1254 (10%), Method: PREINCUBATION inactive; negative | Strain/Indicator: TA98, Metabolic Activation: RAT, LIVER, S-9, AROCLOR 1254 (30%), Method: PREINCUBATION inactive; negative | Strain/Indicator: TA98, Metabolic Activation: RAT, LIVER, S-9, AROCLOR 1254, Method: STANDARD PLATE inactive; negative | Strain/Indicator: TA98, Metabolic Activation: RAT, LIVER, S-9, SODIUM PHENOBARBITAL, Method: STANDARD PLATE inactive; negative | Strain/Indicator: TA100, Metabolic Activation: HAMSTER, LIVER, S-9, AROCLOR 1254 (10%), Method: PREINCUBATION inactive; negative | Strain/Indicator: TA100, Metabolic Activation: HAMSTER, LIVER, S-9, AROCLOR 1254 (30%), Method: PREINCUBATION inactive; negative | Strain/Indicator: TA100, Metabolic Activation: NONE, Method: PREINCUBATION inactive; negative | [2] inactive; negative | Strain/Indicator: TA100, Metabolic Activation: RAT, LIVER, S-9, AROCLOR 1254 (10%), Method: PREINCUBATION inactive; negative | Strain/Indicator: TA100, Metabolic Activation: RAT, LIVER, S-9, AROCLOR 1254 (30%), Method: PREINCUBATION inactive; negative | Strain/Indicator: TA100, Metabolic Activation: RAT, LIVER, S-9, AROCLOR 1254, Method: STANDARD PLATE inactive; negative | Strain/Indicator: TA100, Metabolic Activation: RAT, LIVER, S-9, SODIUM PHENOBARBITAL, Method: STANDARD PLATE inactive; negative | Strain/Indicator: TA1535, Metabolic Activation: HAMSTER, LIVER, S-9, AROCLOR 1254 (10%), Method: PREINCUBATION inactive; negative | Strain/Indicator: TA1535, Metabolic Activation: HAMSTER, LIVER, S-9, AROCLOR 1254 (30%), Method: PREINCUBATION inactive; negative | Strain/Indicator: TA1535, Metabolic Activation: NONE, Method: PREINCUBATION inactive; negative | Strain/Indicator: TA1535, Metabolic Activation: NONE, Method: STANDARD PLATE inactive; negative | Strain/Indicator: TA1535, Metabolic Activation: RAT, LIVER, S-9, AROCLOR 1254 (10%), Method: PREINCUBATION inactive; negative | Strain/Indicator: TA1535, Metabolic Activation: RAT, LIVER, S-9, AROCLOR 1254 (30%), Method: PREINCUBATION inactive; negative | Strain/Indicator: TA1535, Metabolic Activation: RAT, LIVER, S-9, AROCLOR 1254, Method: STANDARD PLATE inactive; negative | Strain/Indicator: TA1535, Metabolic Activation: RAT, LIVER, S-9, SODIUM PHENOBARBITAL, Method: STANDARD PLATE inactive; negative | Strain/Indicator: TA1537, Metabolic Activation: HAMSTER, LIVER, S-9, AROCLOR 1254 (10%), Method: PREINCUBATION inactive; negative | Strain/Indicator: TA1537, Metabolic Activation: NONE, Method: PREINCUBATION inactive; negative | Strain/Indicator: TA1537, Metabolic Activation: NONE, Method: STANDARD PLATE inactive; negative | Strain/Indicator: TA1537, Metabolic Activation: RAT, LIVER, S-9, AROCLOR 1254 (10%), Method: PREINCUBATION inactive; negative | Strain/Indicator: TA1537, Metabolic Activation: RAT, LIVER, S-9, AROCLOR 1254, Method: STANDARD PLATE inactive; negative | Strain/Indicator: TA1537, Metabolic Activation: RAT, LIVER, S-9, SODIUM PHENOBARBITAL, Method: STANDARD PLATE inactive; negative | Strain/Indicator: TA1538, Metabolic Activation: NONE, Method: STANDARD PLATE inactive; negative | Strain/Indicator: TA1538, Metabolic Activation: RAT, LIVER, S-9, AROCLOR 1254, Method: STANDARD PLATE inactive; negative | Strain/Indicator: TA1538, Metabolic Activation: RAT, LIVER, S-9, SODIUM PHENOBARBITAL, Method: STANDARD PLATE inactive; negative

Cc1cc(C)c(C)c(C)c1
inactive: Strain/Indicator: TA97A, Metabolic Activation: RAT LIVER S-9, AROCLOR 1254, Method: STANDARD PLATE inactive; negative | [1] inactive; negative | Strain/Indicator: TA98, Metabolic Activation: RAT LIVER S-9, AROCLOR 1254, Method: STANDARD PLATE inactive; negative | [2] inactive; negative | Strain/Indicator: TA100, Metabolic Activation: RAT LIVER S-9, AROCLOR 1254, Method: STANDARD PLATE inactive; negative | Strain/Indicator: TA102, Metabolic Activation: NONE, Method: STANDARD PLATE inactive; negative | Strain/Indicator: TA102, Metabolic Activation: RAT LIVER S-9, AROCLOR 1254, Method: STANDARD PLATE inactive; negative
active: Strain/Indicator: TA97A, Metabolic Activation: NONE, Method: STANDARD PLATE active; positive
